Measurements taken from patent US4265901A, “2-Oxybenzimidazoline compounds” (priority 1979, dated 1981).
Counter-ions that a name gives are not always drawn.

Assays:
[1] = test system: Cotton; experiment: Pre-emergence herbicide test, cotton; assay type: in vivo
Protocol: (§1) In this evaluation, each compound to be tested was dissolved in a 1:1 mixture of acetone and ethanol containing a small amount of Toximul R and Toximul S (each a sulfonate/nonionic blend produced by Stepan Chemical Company, Northfield, Illinois). The solution was then diluted with deionized water to a composition of the following concentrations, by weight: Plant species used as indicators of herbicidal activity were planted in galvanized pans (flats) 31.5 cm. long, 21.5 cm. wide, and 8.0 cm. deep. The bottoms of the flats had holes to facilitate drainage. The soil used was a 1:1 ratio by volume of masonry sand and shredded top soil. Flats that were to receive preemergence treatments were planted one day prior to, or on the same day treatments were applied. Flats that were to receive postemergence treatments were planted 9 days prior to treatment and placed in a growth chamber until the day of treatment. In the growth chamber, flats received 12 to 18 hours of light per day and were subject to temperatures of 75° to 85° F. The formulated test compound was applied uniformly to the indicator species with a modified DeVilbiss atomizer using air pressure of 3 to 5 psi. Each flat received 12.5 ml. of spray solution which was equal to 200 gallons/acre total spray volume. Plants were maintained in a greenhouse after treatment. Herbicidal effects of chemicals were evaluated by two injury rating systems 18 days after preemergence applications and 14 days after postemergence applications. The degree of plant injury was based on a 1 to 5 scale and a single numerical rating was assigned to each test species as follows: […]

[2] = test system: Soybean; experiment: Pre-emergence herbicide test, soybean; assay type: in vivo
Protocol: as §1

[3] = test system: Wheat; experiment: Pre-emergence herbicide test, wheat; assay type: in vivo
Protocol: as §1

[4] = test system: Alfalfa; experiment: Pre-emergence herbicide test, alfalfa; assay type: in vivo
Protocol: as §1

[5] = test system: Rice; experiment: Pre-emergence herbicide test, rice; assay type: in vivo
Protocol: as §1

[6] = test system: Cucumber; experiment: Pre-emergence herbicide test, cucumber; assay type: in vivo
Protocol: as §1

[7] = test system: Tomato; experiment: Pre-emergence herbicide test, tomato; assay type: in vivo
Protocol: as §1

[8] = test system: Barnyard Grass; experiment: Pre-emergence herbicide test, barnyard grass; assay type: in vivo
Protocol: as §1

[9] = test system: Mustard; experiment: Pre-emergence herbicide test, mustard; assay type: in vivo
Protocol: as §1

[10] = test system: Jimsonweed; experiment: Pre-emergence herbicide test, jimsonweed; assay type: in vivo
Protocol: as §1

[11] = test system: housefly; experiment: House fly contact test; as to all read-outs here: ranges in brackets are in %; assay type: in vivo, Musca domestica; conditions: 1000 ppm; for Housefly Kd. (knockdown rating): 2 hours; for Housefly Cont. (mortality rating): 24 hours
Protocol: In this evaluation, each compound to be tested was dissolved in a 1:1 mixture of acetone and ethanol containing a small amount of Toximul R and Toximul S (each a sulfonate/nonionic blend produced by Stephan Chemical Company, Northfield, Ill.). The solution was then diluted with distilled water to a concentration of 1000 ppm of test compound. Lesser concentration formulations were made by diluting a portion of the 1000 ppm solution with distilled water containing 225 mg. of Toximul R and 125 mg. of Toximul S per liter.
This test was conducted with 4-day-old adults of Musca domestica (Linne), Order Diptera, Family Muscidae.
Rearing cages of 4-day-old adult house flies were placed in a cold room and held for one hour at 35° to 40° F. to chill so that the flies could be transferred to test cages. Approximately 100 flies were transferred to each test cage using a small scoop. The stainless steel test cages were five inches in diameter and one and three-fourths inches deep with a stainless steel screen bottom and screened removable friction fitting lid. The small hole on the side of the cage was kept stoppered except when a wick was inserted for feeding and watering.
Each cage was sprayed with 5 ml. of the test formulation containing 1000 ppm. of the test compound, using a DeVilbiss atomizer supplied with 5 psi air pressure. The nozzle was 33 inches from the top of the cage. After spraying, cages were allowed to dry.
Knockdown counts were made two hours after spraying and then the flies were fed and watered by inserting a four-inch wick of Fibre Flex Supreme, unbleached (16/32"), (manufactured by Sackner Products, Inc., Grand Rapids, Mich.) in the hole on the side of the cage. The cage was placed so that the wick hung down into a pan of five percent sugar solution in water.
One replicate was run for each test compound. One unsprayed cage was held as a control, one cage was sprayed as a negative control, and one cage was sprayed with a formulation containing 50 ppm. (0.005%) DDT as a reference standard.
Mortality counts were made 24 hours after spraying. The cage was rapped lightly. […] Moribund flies were counted as dead.

[12] = test system: adult housefly; experiment: Efficacy against adult housefly, calves subcutaneous pellets (Example 20); assay type: in vivo, Musca domestica; conditions: calf 651, subcutaneous pellets about 5 mg./kg.; test day per line
Protocol: For the adult housefly test, 10 ml. of serum were employed to saturate a wick which was placed in a petri dish. Twenty-five chilled houseflies were placed in the dish which was then incubated for 24 hours at 27° C. and 50% relative humidity. After the end of the twenty-four hours, the efficacy of the candidate compound was determined as the percent mortality of housefly, adjusted as for blowfly by normal mortality in a control and reported according to the same scale as above.
The compound of Example 2, 2-hydroxy-2-(1,1,2,2-tetrafluoroethyl)-4-nitro-6-(trifluoromethyl)benzimidazoline sodium salt, was formulated neat into tablets, each containing about 85 mg. of compound.
These pellets were implanted in the right shoulder area of two calves, weighing 400 and 373 kilograms respectively, to supply a dose of about 5 mg./kg. (animals #651 and 1511, respectively). Another calf (animal #656) was maintained as a control and two additional calves weighing 336 and 350 kilograms (animals #654 and 655, respectively) received pellets of 2-(1,1,2,2-tetrafluoroethyl)-4-nitro-6-(trifluoromethyl)benzimidazole, to supply a dose of about 5 mg./kg. of compound.
As described in preceding examples, blood samples were withdrawn and analyzed for the concentration of the compound in the blood and percent efficacy against adult housefly and blowfly larvae.

O=[N+]([O-])c1cc(C(F)(F)F)cc2c1NC(O)(C(F)(F)C(F)F)N2 (stereo not drawn) [Example 2, 2-Hydroxy-2-(1,1,2,2-Tetrafluoroethyl)-4-Nitro-6-(Trifluoromethyl)Benzimidazoline, Sodium Salt, and Hydrate]
2B: plant injury rating ([1]; 4 lb/A) | plant injury rating ([2]; 4 lb/A)
5D: plant injury rating ([4]; 2 lb/A) | plant injury rating ([9]; 2 lb/A) | plant injury rating ([9]; 4 lb/A) | plant injury rating ([10]; 4 lb/A)
2S: plant injury rating ([5]; 2 lb/A) | plant injury rating ([7]; 1/2 lb/A) | plant injury rating ([9]; 1/2 lb/A)
100%: % Efficacy, Adult Housefly [12]
3 (100): Housefly Cont. (mortality rating) [11]
1 (no injury): plant injury rating ([1]; 1/2 lb/A) | plant injury rating ([1]; 1/4 lb/A) | plant injury rating ([1]; 2 lb/A) | plant injury rating ([2]; 1/2 lb/A) | plant injury rating ([2]; 1/4 lb/A) | plant injury rating ([2]; 1 lb/A) | plant injury rating ([2]; 2 lb/A) | plant injury rating ([3]; 1/2 lb/A) | plant injury rating ([3]; 1/4 lb/A) | plant injury rating ([3]; 1 lb/A) | plant injury rating ([3]; 2 lb/A) | plant injury rating ([4]; 1/4 lb/A) | plant injury rating ([5]; 1/2 lb/A) | plant injury rating ([5]; 1/4 lb/A) | plant injury rating ([5]; 1 lb/A) | plant injury rating ([6]; 1/2 lb/A) | plant injury rating ([6]; 1/4 lb/A) | plant injury rating ([6]; 1 lb/A) | plant injury rating ([6]; 2 lb/A) | plant injury rating ([7]; 1/4 lb/A) | plant injury rating ([7]; 2 lb/A) | plant injury rating ([8]; 1/2 lb/A) | plant injury rating ([8]; 1/4 lb/A) | plant injury rating ([8]; 2 lb/A) | plant injury rating ([9]; 1/4 lb/A) | plant injury rating ([10]; 1/2 lb/A) | plant injury rating ([10]; 1/4 lb/A) | plant injury rating ([10]; 1 lb/A)
2SB: plant injury rating ([5]; 4 lb/A)
3BS: plant injury rating ([3]; 4 lb/A) | plant injury rating ([10]; 2 lb/A)
4BS: plant injury rating ([6]; 4 lb/A) | plant injury rating ([7]; 4 lb/A)
4B: plant injury rating ([9]; 1 lb/A)
3SR: plant injury rating ([4]; 1/2 lb/A)
1 (1-50): Housefly Kd. (knockdown rating) [11]
5N: plant injury rating ([4]; 4 lb/A)
2BS: plant injury rating ([8]; 4 lb/A)

O=[N+]([O-])c1cc(C(F)(F)F)cc2c1NC(O)(C(F)(F)C(F)F)N2O (stereo not drawn) [Example 12, 1,2-Dihydroxy-2-(1,1,2,2-Tetrafluoroethyl)-4-Nitro-6-(Trifluoromethyl)Benzimidazoline]
3SB: plant injury rating ([4]; 2 lb/A)
2S: plant injury rating ([9]; 2 lb/A)
2 (51-99): Housefly Cont. (mortality rating) [11]
1 (no injury): plant injury rating ([1]; 1/2 lb/A) | plant injury rating ([1]; 1 lb/A) | plant injury rating ([1]; 2 lb/A) | plant injury rating ([2]; 1/2 lb/A) | plant injury rating ([2]; 1 lb/A) | plant injury rating ([2]; 2 lb/A) | plant injury rating ([3]; 1/2 lb/A) | plant injury rating ([3]; 1 lb/A) | plant injury rating ([3]; 2 lb/A) | plant injury rating ([4]; 1/2 lb/A) | plant injury rating ([4]; 1 lb/A) | plant injury rating ([5]; 1/2 lb/A) | plant injury rating ([5]; 1 lb/A) | plant injury rating ([5]; 2 lb/A) | plant injury rating ([6]; 1/2 lb/A) | plant injury rating ([6]; 1 lb/A) | plant injury rating ([6]; 2 lb/A) | plant injury rating ([7]; 1/2 lb/A) | plant injury rating ([7]; 1 lb/A) | plant injury rating ([7]; 2 lb/A) | plant injury rating ([8]; 1/2 lb/A) | plant injury rating ([8]; 1 lb/A) | plant injury rating ([8]; 2 lb/A) | plant injury rating ([9]; 1/2 lb/A) | plant injury rating ([9]; 1 lb/A) | plant injury rating ([10]; 1/2 lb/A) | plant injury rating ([10]; 1 lb/A) | plant injury rating ([10]; 2 lb/A)
0 (0): Housefly Kd. (knockdown rating) [11]
